Key:
[1] = molecular target: T1, human DYRK1A (Homo sapiens, UniProt Q13627); test: DYRK1A enzyme assay (ADP-Glo); format: biochemical; conditions: ADP-Glo, ATP 60 μM; read-out: DYRK1A IC50
T1 construct: Recombinant full-length DYRK1A (expressed in E. Coli cells with an N-terminal GST tag); GST (N); purchased SignalChem D09-10G; host or cells: E. coli
Method: The ability of compounds to inhibit human DYRK1A kinase activities was determined using a commercially available ADP-Glo™ Kinase Assay kit (Promega, Cat #V9102) according to the manufacturer's protocol.
Recombinant full-length DYRK1A (expressed in E. Coli cells with an N-terminal GST tag) was purchased from SignalChem (Cat #D09-10G). The DYRK substrate peptide (DYRKtide, sequence: […]) was purchased from SignalChem (Cat #D96-58). This assay, run in a 384-well plate format, is a generic method for measuring kinase activities using an ADP-Glo Kinase Assay Kit. The basic assay procedure involves two steps: (1) Enzymatic step: inhibitors are incubated with the kinase and then ATP (included in the ADP-Glo Kinase Assay Kit) and the DYRKtide are added to start the enzymatic reaction; (2) Detection step: after the kinase reaction, first ADP-Glo™ Reagent is added to terminate the kinase reaction and deplete the remaining ATP. Second, the Kinase Detection Reagent is added to simultaneously convert ADP to ATP and allow the newly synthesized ATP to be measured using a luciferase/luciferin reaction. The light generated is measured using a luminometer.
Briefly, DYRK1A (3 nM) in the enzymatic buffer solutions (40 mM Tris, pH 7.5, 20 mM MgCl2, 0.1 mg/ml BSA, 50 μM DTT) were mixed with various concentrations of inhibitors (dissolved in 100% DMSO). These solutions were incubated for 30 minutes at 25° C., and subsequently a mixture of substrate peptide and ATP was added with the final peptide and ATP concentrations at 20 μM and 60 μM, respectively. The final reaction mixture of enzyme-substrate-ATP-compound was incubated for 60 minutes at 25° C.
Afterwards ADP-Glo™ Reagent was added and the mixture was incubated at 25° C. for 60 minutes. Then Kinase Detection Reagent was added and the final mixture was incubated at 25° C. for 60 minutes. The luminescence signal of the final solution was measured on an Envision instrument (PerkinElmer). The percent (%) inhibition at each concentration of a compound is calculated relative to the luminescence signal in the Max and Min control wells contained within each assay plate. […] The concentrations and percent inhibition values for a test compound are plotted and the concentration of the compound required to achieve 50% inhibition (IC50) is determined with a four-parameter logistic dose response equation.

[2] = test system: Neonatal Rat Ventricular Myocytes (NRVMs); test: Myocyte proliferation assay (EdU assay) in neonatal rat ventricular myocytes; format: cell-based; conditions: growth relative to blank myocyte growth without compound added; for Avg 1 uM (average myocyte proliferation): compound 1 uM; for Avg 3 uM (average myocyte proliferation): compound 3 uM; for Avg 10 uM (average myocyte proliferation): compound 10 uM
Method: 1. Isolation of and Culture Neonatal Rat Ventricular Myocytes (NRVMs)
Ventricles from neonatal rats were separated from the atria, cut into small pieces (about 2×2 mm^2) and then dissociated in Ca2+-free HBSS containing 0.125 mg ml-1 trypsin (Gibco), 10 μg ml-1 DNase II (Sigma) and 0.1 mg ml-1 collagenase type IV (Sigma). The digestion was carried out under constant stirring at 37° C. for 5 min. The supernatant was collected with FBS (Gibco) after each digestion period. After digestion, the collected supernatant was centrifuged at 1000 g for 10 min at room temperature, and then cell pellets were resuspended in DMEM (Gibco) supplemented with 10% FBS and with 100 uM 5-bromo-2′-deoxyuridine (Sigma). The resuspended cells were passed through a cell strainer ([…], BD Falcon) and seeded onto 100-mm plastic dishes for 2 h at 37° C. in a 5% CO2 to remove fibroblasts, the supernatant was then collected and plated onto 1% gelatin (Sigma)-coated dishes. 24 h after the seeding, the medium was changed to DMEM (Gibco) containing 2% FBS (Gibco), 1% insulin-transferrin-selenium (ITS; Gibco), 1% Penicillin-Streptomycin (Gibco). After 24 hours of low serum culture, remove the medium with DMEM (Gibco) containing 6% FBS (Gibco), 1% insulin-transferrin-selenium (ITS; Gibco), 1% Penicillin-Streptomycin (Gibco), different concentrations of compounds (the compounds were pre-diluted in the medium and the drug concentration was 10 uM, 3 uM, 1 uM, fully mixed). After 36 h add Edu substrate (Invitrogen) according to the manufacturer's guidelines, and then after 12 h cell can be used.
• 2.1. Immobilization: Remove the medium and fix the cells with […] in 200 ul (whichever is covered) for 15 min and wash the cells twice with 500 ul of PBS for 5 min each time. • 2.2. Broken membrane: Add 200 ul of 0.3% Triton-X 100 (diluted in PBS) to each well, incubate for 10-15 min at room temperature (the time should not be too long), and wash the cells twice with 500 ul of PBS for 5 min each time. • 2.3. Blocking: Add 200 ul of 10% normal goat serum (diluted with 0.1% PBST) to each well, incubate for 1 h at room temperature, and wash twice with 500 ul of 0.1% PBST for 5 min each time. • 2.4. Primary antibody: dilute the primary antibody (abcam, ab8295) to blocking solution at a ratio of 1:200, add 100 ul per well, incubate for 1 h at room temperature (may be slightly longer than 2-3 h), wash the cells twice with 500 ul 0.1% PBST for 5 min each time. • 2.5. Secondary antibody: Dilute the fluorescently labeled secondary antibody (abcam, ab150117) into blocking solution at a ratio of 1:200, add 100 ul per well, incubate for 1 h at room temperature (the time should not be too long), wash the cells twice with 0.1% PBST for 5 min each time, pay attention to the whole process. Protected from light. • 2.6. Edu staining (Invitrogen C10338) • 2.6.1 Prepare Click-iT® reaction cocktail according to Table 3. It was important to add the ingredients in the order listed in the table; otherwise, the reaction would not proceed optimally. Use the Click-iT® reaction cocktail within 15 minutes of preparation.
• 2.6.2 Add 0.1 mL of Click-iT® reaction cocktail to each well containing a coverslip. Rock the plate briefly to ensure that the reaction cocktail is distributed evenly over the coverslip. • 2.6.3 Incubate the plate for 30 minutes at room temperature, protected from light. • 2.6.4 Remove the reaction cocktail, then wash the cells twice with 0.1% PBST for 5 min each time. • 2.7. DAPI staining: DAPI stain was diluted to PBS at a ratio of 1:1000, 100 ul per well, incubated for 30 min at room temperature, and the cells were washed twice with PBS for 5 min each. 3. Data Analysis
We used Molecular Devices' Image Xpress Micro Confocal for high-throughput photo and data analysis.

| IC50 [1] [µM] | SMILES | Avg 1 uM (average myocyte proliferation) [2] | Avg 3 uM (average myocyte proliferation) [2] | Avg 10 uM (average myocyte proliferation) [2] |
| --- | --- | --- | --- | --- |
| 0.1 to 1 | CN(CC1CC1)C1=N/C(=C\c2ccc3c(c2)OCCO3)C(=O)N1 [Example 19, (Z)-2-((cyclopropylmethyl)(methyl)amino)-5-((2,3-dihydrobenzo[b][1,4]dioxin-6-yl)methylene)-3,5-di hydro-4H-imidazol-4-one] | * (<10% growth relative to blank myocyte growth without compound added.) | * (<10% growth relative to blank myocyte growth without compound added.) | * (<10% growth relative to blank myocyte growth without compound added.) |
| > 10 | O=C1NC(Nc2ccc3ncsc3c2)=N/C1=C\c1ccc2[nH]ccc2c1 [Example 58, (Z)-5-((1H-indol-5-yl)methylene)-2-(benzo[d]thiazol-6-ylamino)-3,5-dihydro-4H-imidazol-4-one] | * (<10% growth relative to blank myocyte growth without compound added.) | * (<10% growth relative to blank myocyte growth without compound added.) |  |
| 1 to 10 | CN(CCN1CCOCC1)C1=N/C(=C\c2ccc3ncsc3c2)C(=O)N1 [Example 32, (Z)-5-(benzo[d]thiazol-6-ylmethylene)-2-(methyl(2-morpholinoethyl)amino)-3,5-dihydro-4H-imidazol-4-one] | * (<10% growth relative to blank myocyte growth without compound added.) | * (<10% growth relative to blank myocyte growth without compound added.) |  |
| 0.1 to 1 | CN(Cc1ccccc1)C1=N/C(=C\c2ccc3ncsc3c2)C(=O)N1 [Example 28, (Z)-5-(benzo[d]thiazol-6-ylmethylene)-2-(benzyl(methyl)amino)-3,5-dihydro-4H-imidazol-4-one] | * (<10% growth relative to blank myocyte growth without compound added.) | * (<10% growth relative to blank myocyte growth without compound added.) | * (<10% growth relative to blank myocyte growth without compound added.) |
| < 0.1 | NC1=N/C(=C\c2ccc3ncsc3c2)C(=O)N1 [Example 103, (Z)-2-amino-5-(benzo[d]thiazol-6-ylmethylene)-3,5-dihydro-4H-imidazol-4-one] | ** (10%-50%) | ** (10%-50%) |  |
| 0.1 to 1 | CN(C1=N/C(=C\c2ccc3c(c2)OCO3)C(=O)N1)c1cccnc1 [Example 18, (Z)-5-(benzo[d][1,3]dioxol-5-ylmethylene)-2-(methyl(pyridin-3-yl)amino)-3,5-dihydro-4H-imidazol-4-one] | * (<10% growth relative to blank myocyte growth without compound added.) | * (<10% growth relative to blank myocyte growth without compound added.) | ** (10%-50%) |
| 1 to 10 | O=C1NC(Nc2ccc3ncsc3c2)=NC1Cc1ccc2ncsc2c1 (stereo not shown) [Example 102, 2-(benzo[d]thiazol-6-ylamino)-5-(benzo[d]thiazol-6-ylmethyl)-3,5-dihydro-4H-imidazol-4-one] | * (<10% growth relative to blank myocyte growth without compound added.) | ** (10%-50%) |  |

| SMILES | IC50 [1] [µM] | Avg 1 uM (average myocyte proliferation) [2] | Avg 3 uM (average myocyte proliferation) [2] | Avg 10 uM (average myocyte proliferation) [2] |
| --- | --- | --- | --- | --- |
| Cn1ncc2ccc(/C=C3\N=C(Nc4ccccc4)NC3=O)cc21 [Example 79, 5-((1-methyl-1H-indazol-6-yl)methylene)-2-(phenylamino)-3,5-dihydro-4H-imidazol-4-one] | > 10 | * (<10% growth relative to blank myocyte growth without compound added.) | * (<10% growth relative to blank myocyte growth without compound added.) |  |
| O=C1NC(N(CC2CC2)c2ccccc2)=N/C1=C\c1ccc2c(c1)OCO2 [Example 10, (Z)-5-(benzo[d][1,3]dioxol-5-ylmethylene)-2-((cyclopropylmethyl)(phenyl)amino)-3,5-dihydro-4H-imidazol-4-one] | 0.1 to 1 | ** (10%-50%) | * (<10% growth relative to blank myocyte growth without compound added.) | *** (>50%) |
| CN(C1=N/C(=C\c2ccc3c(c2)OCO3)C(=O)N1)c1ccccc1 [Example 1, (Z)-5-(benzo[d][1,3]dioxol-5-ylmethylene)-2-(methyl(phenyl)amino)-3,5-dihydro-4H-imidazol-4-one] | 0.1 to 1 | * (<10% growth relative to blank myocyte growth without compound added.) | *** (>50%) | ** (10%-50%) |
| O=C1/C(=C/c2ccc3c(c2)OCO3)N=C(N(Cc2ccccc2)c2ccccc2)N1Cc1ccccc1 [Example 2, (Z)-5-(benzo[d][1,3]dioxol-5-ylmethylene)-3-benzyl-2-(benzyl(phenyl)amino)-3,5-dihydro-4H-imidazol-4-one] | 1 to 10 | * (<10% growth relative to blank myocyte growth without compound added.) | * (<10% growth relative to blank myocyte growth without compound added.) | *** (>50%) |
| O=C1NC(Nc2ccccc2)=N/C1=C\c1ccc2occc2c1 [Example 52, (Z)-5-(benzofuran-5-ylmethylene)-2-(phenylamino)-3,5-dihydro-4H-imidazol-4-one] | > 10 | ** (10%-50%) | ** (10%-50%) | ** (10%-50%) |
